The text below walks through data of patent US20170129916A1, “NOVEL BETULINIC PROLINE IMIDAZOLE DERIVATIVES AS HIV INHIBITORS” (HETERO RESEARCH FOUNDATION, priority 2014, published 2017).

A short description of data set [1]: Single dose oral pharmacokinetic study. The data set is classed as in vivo. The following applies: mouse, mice, 30 mg/kg, plasma; for AUC(0-t): read-out: Mice oral PK @30 mg/kg AUC 0-t; for Cmax: read-out: Mice oral PK @30 mg/kg Cmax. Summed up: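 Rats or mice received 30 mg/kg orally at 10 ml/kg dose volume. Retro-orbital blood was taken into K3 EDTA at defined intervals under light ether anesthesia and centrifuged to plasma. Plasma levels were measured by LC-MS-MS.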

Data set [2] deals with HIV-1 strains, for e.g., 92HT599. Kind of data set: Antiviral activity: p24 estimation in MT-2 cells infected with HIV-1. The following applies: Human immunodeficiency virus 1, MT2, MT-2 cells infected with HIV-1, p24, ~96 hours; for IC50: read-out: Antiviral activity IC50 (nM) Efficacy IC50. The data set is classed as cell-based. Summed up: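 MT-2 cells infected with HIV-1 (e.g. 92HT599), plated at 30,000 cells/well with compound (DMSO ≤1%) and incubated ~96 h. Supernatant p24 quantified by kit; percent inhibition relative to vehicle controls.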

As usually defined, the inhibition is how much of the control response was suppressed. What is called IC50 is the concentration that gives 50% inhibition. Consider `C=C(C)[C@@H]1CC[C@]2(C(=O)N3CCC[C@H]3c3ncc(C(F)(F)F)[nH]3)CC[C@]3(C)[C@H](CC[C@@H]4[C@@]5(C)CC[C@H](OC(=O)[C@H]6C[C@@H](C(=O)O)C6(C)C)C(C)(C)[C@@H]5CC[C@]43C)[C@@H]12` [Compound 34, (1R,3S)-2,2-dimethyl-3-((((1R,3aS,5aR,5b,7aR,9S,11aR,11bR,13aR,13bR)-5a,5b,8,8,11a-pentamethyl-1-(prop-1-en-2-yl)-3a-((S)-2-(5-(trifluoromethyl)-1H-imidazol-2-yl)pyrrolidine-1-carbonyl)icosahydro-1H-cyclopenta[a]chrysen-9-yl)oxy)carbonyl)cyclobutane-1-carboxylic acid], for which, in data set [1], the AUC(0-t) is 417 µg·h/mL and the Cmax amounted to 18700 ng/mL. Besides, in data set [2], the inhibition at 0.1 µM is 86%, the inhibition at 1 µM was 100% and the IC50 was 6.66 nM.
The corresponding values for `C=C(C)[C@@H]1CC[C@]2(C(=O)N3CCC[C@H]3c3nc(C)c(C)[nH]3)CC[C@]3(C)[C@H](CC[C@@H]4[C@@]5(C)CC[C@H](OC(=O)[C@H]6C[C@@H](C(=O)O)C6(C)C)C(C)(C)[C@@H]5CC[C@]43C)[C@@H]12` [Compound 35, (1R,3S)-3-((((1R,3aS,5aR,5bR,7aR,9S,11aR,11bR,13aR,13bR)-3a-((S)-2-(4,5-dimethyl-1H-imidazol-2-yl)pyrrolidine-1-carbonyl)-5a,5b,8,8,11a-pentamethyl-1-(prop-1-en-2-yl)icosahydro-1H-cyclopenta[a]chrysen-9-yl)oxy)carbonyl)-2,2-dimethylcyclobutane-1-carboxylic acid] are 250 µg·h/mL, 14000 ng/mL, 100%, 100% and 2.81 nM.
The corresponding values for `C=C(C)[C@@H]1CC[C@]2(C(=O)N3CCC[C@H]3c3ncc[nH]3)CC[C@]3(C)[C@H](CC[C@@H]4[C@@]5(C)CC[C@H](OC(=O)[C@H]6C[C@@H](C(=O)O)C6(C)C)C(C)(C)[C@@H]5CC[C@]43C)[C@@H]12` [Compound 36, (1R,3S)-3-((((1R,3aS,5aR,5bR,7aR,9S,11aR,11bR,13aR,13bR)-3a-((S)-2-(1H-imidazol-2-yl)pyrrolidine-1-carbonyl)-5a,5b,8,8,11a-pentamethyl-1-(prop-1-en-2-yl)icosahydro-1H-cyclopenta[a]chrysen-9-yl)oxy)carbonyl)-2,2-dimethylcyclobutane-1-carboxylic acid] are 158 µg·h/mL, 10800 ng/mL, 98%, 100% and 1.22 nM.
The matching figures for `C=C(C)[C@@H]1CC[C@]2(C(=O)N3CCC[C@H]3c3nc4ccccc4[nH]3)CC[C@]3(C)[C@H](CC[C@@H]4[C@@]5(C)CC[C@H](OC(=O)[C@H]6C[C@@H](C(=O)O)C6(C)C)C(C)(C)[C@@H]5CC[C@]43C)[C@@H]12` [Compound 37]: 487 µg·h/mL, 16800 ng/mL, 99%, 99% and 3.21 nM.
In the case of `C=C(C)[C@@H]1CC[C@]2(C(=O)N3C[C@H](OCCOC)C[C@H]3c3nc(-c4ccccc4)c[nH]3)CC[C@]3(C)[C@H](CC[C@@H]4[C@@]5(C)CC[C@H](OC(=O)CC(C)(C)C(=O)O)C(C)(C)[C@@H]5CC[C@]43C)[C@@H]12` [Compound 43, 4-(((1R,3aS,5aR,5bR,7aR,9S,11aR,11bR,13aR,13bR)-3a-((2S,4R)-4-(2-methoxyethoxy)-2-(4-phenyl-1H-imidazol-2-yl)pyrrolidine-1-carbonyl)-5a,5b,8,8,11a-pentamethyl-1-(prop-1-en-2-yl)icosahydro-1H-cyclopenta[a]chrysen-9-yl)oxy)-2,2-dimethyl-4-oxobutanoic acid], in data set [1], the AUC(0-t) was determined as 333 µg·h/mL and the Cmax was 15400 ng/mL. Moreover, the 50% inhibitory concentration (IC50) in data set [2] is 0.3 nM.
